According to US8546375B2, “(3-(4-(aminomethyl)phenoxy or phenylthio)azetidin-1-yl)(5-phenyl-1,3,4-oxadiazol-2-yl)methanone compounds” (AstraZeneca AB, priority 2010, dated 2013):
pIC50: −log10 of the molar value.

Legend:
[1] = molecular target: T1, Melanin Concentrating Hormone Receptor 1 (MCHR1) (Homo sapiens, UniProt Q99705); assay: MCHR1 Receptor Activation Assay (GTPγ^35S); type: biochemical; settings: read-out: GTPγ^35S IC50
T1 construct: expressed in transfected cells
T1 sequence (Q99705 whole entry): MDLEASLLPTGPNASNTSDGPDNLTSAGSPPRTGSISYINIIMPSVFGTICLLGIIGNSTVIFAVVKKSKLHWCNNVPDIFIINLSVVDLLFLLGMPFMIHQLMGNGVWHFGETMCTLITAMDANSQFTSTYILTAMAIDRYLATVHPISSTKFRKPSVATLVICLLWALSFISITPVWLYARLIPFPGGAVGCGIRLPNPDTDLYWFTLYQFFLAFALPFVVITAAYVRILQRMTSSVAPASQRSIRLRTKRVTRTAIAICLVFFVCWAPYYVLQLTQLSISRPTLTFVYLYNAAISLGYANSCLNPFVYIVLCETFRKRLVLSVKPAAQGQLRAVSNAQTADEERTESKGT

melting point: 135 °C | pIC50 [1]: 7.66
SMILES: Cc1cc(OC2CN(C(=O)c3nnc(-c4ccccc4)o3)C2)ccc1CN(C)C [Example 21, (3-(4-((Dimethylamino)methyl)-3-methylphenoxy)azetidin-1-yl)(5-phenyl-1,3,4-oxadiazol-2-yl)methanone]
